From patent US6939948B1, “GD2 peptide mimics” (Health Research, Inc., priority 2002, dated 2005)
No end group written: not given here.

Test system: anti-GD2 ganglioside mAb 3F8
Experiment: Inhibition assay: inhibition of binding of anti-GD2 mAb 3F8 to GD2 ganglioside bearing melanoma cells
Settings: GD2 (+) human melanoma cells
Protocol: Peptide mimics of GD2 ganglioside can be isolated by panning phage display peptide libraries with anti-GD2 ganglioside such as mAbs 3F8, 5F11, and KM666 that recognize different epitopes on GD2 ganglioside. Anti-GD2 ganglioside mAbs can be used to isolate phage that display antibody reactive peptides. After phage panning, the binding ability of isolated phage colonies to anti-GD2 ganglioside mAbs is tested with immunoscreening and further confirmed by ELISA. Anti-GD2 antibody reactive phage clone and the same phage without displaying peptides, can be utilized as a positive and a negative controls respectively in the immunoscreening and ELISA. In the positive phage clones, the DNA inserts that encode the antibody reactive peptides can be sequenced. Peptides can be synthesized based on the sequences of the DNA inserts. The synthesized peptides are tested in ELISA to determine their binding reactivity with corresponding anti-GD2 ganglioside mAbs. […] The synthetic peptides that inhibit or block the binding of anti-GD2 ganglioside mAbs to GD2 ganglioside can be tested as active immunotherapy candidates.
The synthesized peptides were tested with reverse ELISA and inhibition assay with mAb 3F8. […] Peptide J51 contains HLA-B7 and HLA-DRB1 binding motifs.

Substance | inhibition of the binding of mAb 3F8 to GD2 ganglioside bearing melanoma cells
DCFRGDPYQPKWRLC (J51 peptide mimic for GD2) [Peptide J51, GD2 peptide mimic from PVIII X15 library] | inhibited the binding
cJ51: cyclic peptide J51, which mimics the structure of GD2 ganglioside (DCFRGDPYQPKWRLC; also: cyclic, cyclising bond not given here) | inhibit the binding
